In patent publication US20190225650A1, “PEPTIDOMIMETIC MACROCYCLES AND USE THEREOF IN REGULATING HIF1ALPHA” (AILERON THERAPEUTICS, INC., priority 2013, published 2019):
Bridge positions count the residues as written; N and C are the ends. Square brackets hold non-standard residues; d marks the D form. Peptide text beside a SMILES is read from it. R8 = C=CCCCCCC[C@@](C)(N)C(=O)O; S5 = C=CCCC[C@](C)(N)C(=O)O; Nle = CCCC[C@H](N)C(=O)O

Legend:
HRE-bla ME-180 cells [1] = experiment: Reporter gene assay (HRE-bla ME-180 HIF reporter, GeneBLAzer); assay type: cell-based, human; conditions: for EC50: 24 hour normoxia
Method in brief: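 A FRET β-lactamase readout of HIF transcription was used. After compound treatment in 0.3% DMSO/media under normoxic conditions, 20 μl of 6× LiveBLAzer-FRET B/G (CCF4-AM) substrate was added. Plates sat 3 hr at room temperature in the dark and were read at 409 Ex/460Em and 409Ex/530Em on a Synergy 2. Inhibition was compared against DMSO vehicle controls, with chetomin as positive control.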

HRE-bla ME-180 cells [2] = experiment: Cell proliferation assay (viability, MTT, 1% FBS); assay type: cell-based, human
Procedure: The human cervical cell line HRE-Bla ME-180 was obtained from Invitrogen. 2×10^4 ME-180 cells were plated in 96-well plates (costar) in Opti-MEM plus 1% FBS (Invitrogen). After 4 hr, cells were pretreated with chetomin, peptide or 0.5% DMSO (final concentration in media) vehicle control for 16 hr under normoxia (21% O2); then incubation continued under normoxia or hypoxia (1% O2) using a hypoxia incubator (Thermo Forma model). Viable cell numbers were quantified using CellTiter 96 Non-Radioactive Cell Proliferation kit (Promega, G4100). The results are presented in the column “Viability 1% FBS AVG (MTT V3-24 hr Normoxia) (μM)” of Table 6.

Row | Structure (SMILES) | EC50 (HRE-bla ME-180 cells [1]) [µM] | 18 h Avg % max inhibition at top conc (HIF Rptr-24 hrs normoxia) (μM) (HRE-bla ME-180 cells [1]) | Viability 1% FBS AVG (MTT V3-24 hr Normoxia) (μM) (HRE-bla ME-180 cells [2])
1 | CC[C@H](C)[C@H](NC(=O)[C@H](Cc1ccccc1)NC(C)=O)C(=O)N[C@@H](CC(=O)O)C(=O)N[C@@H](CCC(=O)O)C(=O)N[C@H](C(=O)N[C@H](C(=O)N[C@@H](CC(C)C)C(=O)N[C@@H](CCSC)C(=O)N[C@@]1(C)CCCC=CCCC[C@@](C)(C(=O)N[C@@H](CCSC)C(=O)N[C@@H](C)C(=O)N[C@@H](CC(C)C)C(N)=O)NC(=O)[C@H]([C@@H](C)CC)NC(=O)[C@H](C(C)C)NC(=O)[C@H](CC(C)C)NC1=O)C(C)C)[C@@H](C)O [SP-239] (Ac-FIDETVLM[S5]LVI[S5]MAL-NH2; staple 9-13) | > 30 | ++ (≤10 but <25: ++) | ++++ (≥30: ++++)
2 | CCCC[C@H](NC(=O)[C@H](Cc1ccccc1)NC(=O)[C@@H](NC(=O)[C@H](C)NC(=O)[C@H](CCC(N)=O)NC(=O)[C@H](CC(=O)O)NC(=O)[C@@H](NC(=O)[C@H](Cc1ccccc1)NC(C)=O)[C@@H](C)CC)C(C)C)C(=O)N[C@@]1(C)CCCC=CCCC[C@@](C)(C(=O)N[C@@H](CCCC)C(=O)N[C@@H](C)C(=O)N[C@@H](CC(C)C)C(=O)N[C@@H](CC(C)C)C(N)=O)NC(=O)[C@H]([C@@H](C)CC)NC(=O)[C@H](C(C)C)NC(=O)[C@H](CC(C)C)NC1=O [SP-250] (Ac-FIDQAVF[Nle][S5]LVI[S5][Nle]ALL-NH2; staple 9-13) | > 30 | + (<10: +) | ++++ (≥30: ++++)
3 | CC[C@H](C)[C@H](NC(=O)[C@H](CCCNC(=N)N)NC(=O)[C@H](CC(=O)O)NC(=O)[C@H](CC(C)C)NC(=O)[C@H](C)NC(=O)[C@H](CCSC)NC(=O)[C@]1(C)CCCC=CCCC[C@](C)(NC(=O)[C@H](CCSC)NC(=O)[C@H](Cc2ccccc2)NC(=O)[C@@H](NC(=O)[C@H](CCC(=O)O)NC(=O)[C@H](CCC(N)=O)NC(=O)[C@H](CC(=O)O)NC(=O)[C@@H](NC(=O)[C@H](Cc2ccccc2)NC(C)=O)[C@@H](C)CC)C(C)C)C(=O)N[C@@H](CC(C)C)C(=O)N[C@@H](C(C)C)C(=O)N[C@@H]([C@@H](C)CC)C(=O)N1)C(N)=O [SP-267] (Ac-FIDQEVFM[S5]LVI[S5]MALDRI-NH2; staple 9-13) | > 30 | +++ (≤25 but <50: +++) | ++++ (≥30: ++++)
4 | CCCC[C@H](NC(=O)[C@H](CC(C)C)NC(=O)[C@@H](NC(=O)[C@H](C)NC(=O)[C@H](CCC(N)=O)NC(=O)[C@H](CC(=O)O)NC(=O)[C@@H](NC(=O)[C@H](Cc1ccccc1)NC(C)=O)[C@@H](C)CC)C(C)C)C(=O)N[C@@]1(C)CCCC=CCCC[C@@](C)(C(=O)N[C@@H](CCCC)C(=O)N[C@@H](C)C(=O)N[C@@H](CC(C)C)C(=O)N[C@@H](CC(N)=O)C(=O)N[C@@H](CCCNC(=N)N)C(=O)N[C@H](C(N)=O)[C@@H](C)CC)NC(=O)[C@H]([C@@H](C)CC)NC(=O)[C@H](C(C)C)NC(=O)[C@H](CC(C)C)NC1=O [SP-273] (Ac-FIDQAVL[Nle][S5]LVI[S5][Nle]ALNRI-NH2; staple 9-13) | > 30 | +++ (≤25 but <50: +++) | ++++ (≥30: ++++)

More lines, main results first:

Row | EC50 (HRE-bla ME-180 cells [1]) [µM] | Structure (SMILES) | 18 h Avg % max inhibition at top conc (HIF Rptr-24 hrs normoxia) (μM) (HRE-bla ME-180 cells [1]) | Viability 1% FBS AVG (MTT V3-24 hr Normoxia) (μM) (HRE-bla ME-180 cells [2])
5 | > 30 | CCCC[C@H](NC(=O)[C@H](CCC(=O)O)NC(=O)[C@@H](NC(=O)[C@@H](NC(=O)[C@H](CC(C)C)NC(=O)[C@]1(C)CCCC=CCCC[C@](C)(NC(=O)[C@H](CCC(=O)O)NC(=O)[C@H](CC(=O)O)NC(=O)[C@@H](NC(=O)[C@H](Cc2ccccc2)NC(C)=O)[C@@H](C)CC)C(=O)N[C@@H](CO)C(=O)N[C@@H](CC(C)C)C(=O)N[C@@H](CCCC)C(=O)N1)C(C)C)[C@@H](C)CC)C(=O)N[C@@H](C)C(=O)N[C@@H](CC(C)C)C(N)=O [SP-140] (Ac-FIDE[S5]SL[Nle][S5]LVIE[Nle]AL-NH2; staple 5-9) | +++ (≤25 but <50: +++) | +++ (≤15 but <30: +++)
6 | > 30 | CC[C@H](C)[C@H](NC(=O)[C@H](CCCNC(=N)N)NC(=O)[C@H](CC(=O)O)NC(=O)[C@H](CC(C)C)NC(=O)[C@H](C)NC(=O)[C@H](CCSC)NC(=O)[C@H](CCC(=O)O)NC(=O)[C@]1(C)CCCC=CCCCCCC[C@@](C)(NC(=O)[C@H](CCC(=O)O)NC(=O)[C@H](CC(=O)O)NC(=O)[C@@H](NC(=O)[C@H](Cc2ccccc2)NC(C)=O)[C@@H](C)CC)C(=O)N[C@@H](C(C)C)C(=O)N[C@@H](CC(C)C)C(=O)N[C@@H](CCSC)C(=O)N[C@@H](CO)C(=O)N[C@@H](CC(C)C)C(=O)N[C@@H](C(C)C)C(=O)N1)C(N)=O [SP-175] (Ac-FIDE[R8]VLMSLV[S5]EMALDRI-NH2; staple 5-12) | ++ (≤10 but <25: ++) | ++++ (≥30: ++++)
7 | > 30 | CC[C@H](C)[C@H](NC(=O)[C@H](Cc1ccccc1)NC(C)=O)C(=O)N[C@@H](CC(=O)O)C(=O)N[C@@H](CCC(=O)O)C(=O)N[C@@H](CCC(=O)O)C(=O)N[C@H](C(=O)N[C@@H](CC(C)C)C(=O)N[C@@H](CCSC)C(=O)N[C@@]1(C)CCCC=CCCC[C@@](C)(C(=O)N[C@@H](CCSC)C(=O)N[C@@H](C)C(=O)N[C@@H](CC(C)C)C(=O)N[C@@H](CC(C)C)C(N)=O)NC(=O)[C@H]([C@@H](C)CC)NC(=O)[C@H](C(C)C)NC(=O)[C@H](CC(C)C)NC1=O)C(C)C [SP-229] (Ac-FIDEEVLM[S5]LVI[S5]MALL-NH2; staple 9-13) | + (<10: +) | ++++ (≥30: ++++)
8 | ≤ 5 | CCCC[C@H](NC(=O)[C@H](Cc1ccccc1)NC(=O)[C@@H](NC(=O)[C@H](C)NC(=O)[C@H](CCC(N)=O)NC(=O)[C@H](CC(=O)O)NC(=O)[C@@H](NC(=O)[C@H](Cc1ccccc1)NC(C)=O)[C@@H](C)CC)C(C)C)C(=O)N[C@@]1(C)CCCC=CCCC[C@@](C)(C(=O)N[C@@H](CCCC)C(=O)N[C@@H](C)C(=O)N[C@@H](CC(C)C)C(=O)N[C@@H](CC(C)C)C(N)=O)NC(=O)[C@H]([C@@H](C)CC)NC(=O)[C@H](C(C)C)NC(=O)[C@H](Cc2c[nH]cn2)NC1=O [SP-254] (Ac-FIDQAVF[Nle][S5]HVI[S5][Nle]ALL-NH2; staple 9-13) | +++ (≤25 but <50: +++) | + (<5: +)
9 | ≤ 5 | CCCC[C@H](NC(=O)[C@H](Cc1ccccc1)NC(=O)[C@@H](NC(=O)[C@H](C)NC(=O)[C@H](CCC(N)=O)NC(=O)[C@H](CC(=O)O)NC(=O)[C@@H](NC(=O)[C@H](Cc1ccccc1)NC(C)=O)[C@@H](C)CC)C(C)C)C(=O)N[C@@]1(C)CCCC=CCCC[C@@](C)(C(=O)N[C@@H](CCC(N)=O)C(=O)N[C@@H](C)C(=O)N[C@@H](CC(C)C)C(=O)N[C@@H](CC(C)C)C(N)=O)NC(=O)[C@H]([C@@H](C)CC)NC(=O)[C@H](C(C)C)NC(=O)[C@H](CC(C)C)NC1=O [SP-255] (Ac-FIDQAVF[Nle][S5]LVI[S5]QALL-NH2; staple 9-13) | ++++ (≥50: ++++) | + (<5: +)
